Assays:
[1] = biological target: T1, Prostaglandin D2 receptor 2 (Homo sapiens, UniProt Q9Y5Y4); test: biochemical
T1 sequence (Q9Y5Y4 whole entry): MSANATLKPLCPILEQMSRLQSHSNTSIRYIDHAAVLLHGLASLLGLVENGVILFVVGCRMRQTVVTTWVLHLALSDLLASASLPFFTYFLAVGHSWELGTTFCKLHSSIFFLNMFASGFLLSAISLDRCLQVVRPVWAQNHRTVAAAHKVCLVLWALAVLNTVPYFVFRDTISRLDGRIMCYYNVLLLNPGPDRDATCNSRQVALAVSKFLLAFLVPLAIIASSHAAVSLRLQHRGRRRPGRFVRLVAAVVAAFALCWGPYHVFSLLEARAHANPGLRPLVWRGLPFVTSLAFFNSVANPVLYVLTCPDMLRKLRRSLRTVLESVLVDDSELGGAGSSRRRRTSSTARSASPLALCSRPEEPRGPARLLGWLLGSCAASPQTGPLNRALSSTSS
Description: Displacement of [3H]PGD2 from human CRTh2 expressed in HEK cell membranes after 60 mins by scintillation counting method

[2] = biological target: T1, Prostaglandin D2 receptor 2

## CC1(N(C(=O)CCC(=O)O)[C@H]2c3ccccc3N(C(=O)c3ccc(OC(F)(F)F)cc3)[C@H]3CCCC32)CC1 (single isomer, unassigned)
[1]
  Ki: 64 nM

## C[C@H](CC(=O)N(C1CC1)[C@H]1c2ccccc2N(C(=O)OCc2ccccc2)[C@H]2CCC[C@H]21)C(=O)O
[1]
  Ki: 82 nM

## O=C(O)CCC(=O)N(C1CC1)[C@H]1c2cc(C(F)F)ccc2N(C(=O)c2ccc(OC(F)(F)F)cc2)[C@H]2CCC[C@H]21
[1]
  Ki: 14 nM

## CCN(C(C)=O)[C@H]1c2ccccc2N(C(=O)c2ccccc2)[C@H]2CCC[C@@H]12
[2]
  IC50: 1840 nM
[1]
  Ki: 26 nM

## CN(C(=O)CCC(=O)O)[C@H]1c2ccccc2N(C(=O)c2ccc(OC(F)(F)F)cc2)[C@H]2CCCC12 (single isomer, unassigned)
[1]
  Ki: 16 nM

## O=C(O)COC(=O)N(C1CC1)C1c2ccccc2N(C(=O)c2ccccc2)C2CCCC21 (racemic)
[1]
  Ki: 9.4 nM

## O=C(O)c1ccccc1C(=O)N(C1CC1)[C@H]1c2ccccc2N(C(=O)c2ccc(OC(F)(F)F)cc2)[C@H]2CCC[C@H]21
[1]
  Ki: 840 nM

## O=C(O)CCC(=O)N(C1CC1)[C@H]1c2ccccc2N(c2nnc(-c3ccccc3)o2)[C@H]2CCC[C@H]21
[1]
  Ki: 28 nM

## O=C(O)CCC(=O)N(C1CCC1)[C@H]1c2ccccc2N(C(=O)c2ccc(OC(F)(F)F)cc2)[C@H]2CCCC21 (single isomer, unassigned)
[1]
  Ki: 8.6 nM

## CC(CC(=O)N(C1CC1)[C@H]1c2ccccc2N(C(=O)OCc2ccccc2)[C@H]2CCC[C@H]21)C(=O)O (stereo not given in full)
[1]
  Ki: 510 nM

## O=C(O)CCC(=O)N(C1CC1)[C@H]1c2ccccc2N(C(=O)Nc2ccccc2)[C@H]2CCC[C@H]21
[1]
  Ki: 56 nM

## O=C(O)CCC(=O)N(C1CC1)[C@H]1c2cc(-c3cncnc3)ccc2N(C(=O)c2ccc(OC(F)(F)F)cc2)[C@H]2CCC[C@H]21
[1]
  Ki: 300 nM

## O=C(O)CCC(=O)N(C1CC1)[C@H]1c2ccccc2N(CC(=O)Nc2ccc(F)cc2)[C@H]2CCC[C@H]21
[1]
  Ki: 660 nM

## CC(C)(CC(=O)N(C1CC1)[C@H]1c2ccccc2N(C(=O)OCc2ccccc2)[C@H]2CCC[C@H]21)C(=O)O
[1]
  Ki: 7800 nM

## O=C(O)CCC(=O)N(C1CC1)[C@H]1c2cc(-c3ccc(F)cc3)ccc2N(C(=O)c2ccc(OC(F)(F)F)cc2)[C@H]2CCC[C@H]21
[1]
  Ki: 110 nM

## O=C(O)CCC(=O)N(C1CC1)C1c2ccccc2N(C(=O)OCc2ccccc2)C2CCCCC21 (racemic)
[2]
  IC50: 175 nM
[1]
  Ki: 32 nM

## CCc1ccc2c(c1)[C@H](N(C(=O)CCC(=O)O)C1CC1)[C@@H]1CCC[C@@H]1N2C(=O)c1ccc(OC(F)(F)F)cc1
[1]
  Ki: 31 nM

## CCN(C(=O)CCC(=O)O)[C@H]1c2ccccc2N(C(=O)c2ccc(OC(F)(F)F)cc2)[C@H]2CCCC12 (single isomer, unassigned)
[1]
  Ki: 12 nM

## CC(C)N(C(=O)CCC(=O)O)[C@H]1c2ccccc2N(C(=O)c2ccc(OC(F)(F)F)cc2)[C@H]2CCCC21 (single isomer, unassigned)
[1]
  Ki: 50 nM

## O=C(O)CCC(=O)N(CCC(F)(F)F)[C@H]1c2ccccc2N(C(=O)c2ccc(OC(F)(F)F)cc2)[C@H]2CCCC12 (single isomer, unassigned)
[1]
  Ki: 35 nM

## O=C(O)CCC(=O)N(CC1CCC1)[C@H]1c2ccccc2N(C(=O)c2ccc(OC(F)(F)F)cc2)[C@H]2CCCC12 (single isomer, unassigned)
[1]
  Ki: 9 nM

## O=C(O)CCCC(=O)N(C1CC1)C1c2ccccc2N(C(=O)OCc2ccccc2)C2CCCC21 (racemic)
[1]
  Ki: 1490 nM

## O=C(O)CCC(=O)N(C1CC1)[C@H]1c2cc(C3CC3)ccc2N(C(=O)c2ccc(OC(F)(F)F)cc2)[C@H]2CCC[C@H]21
[1]
  Ki: 43 nM

## O=C(c1ccc(OC(F)(F)F)cc1)N1c2ccccc2[C@H](N(C(=O)CCc2nn[nH]n2)C2CC2)[C@@H]2CCC[C@@H]21
[1]
  Ki: 98 nM

## O=C(O)CCC(=O)N(C1CC1)C1c2ccccc2N(C(=O)OCc2ccccc2)C2CCC21 (racemic)
[2]
  IC50: 210 nM
[1]
  Ki: 25 nM

## O=C(O)CCC(=O)N(C1CC1)C1c2ccccc2N(C(=O)c2ccccc2)C2CCCC21 (racemic)
[2]
  IC50: 41 nM
[1]
  Ki: 10 nM
